# Earlier results, collected in PubChem BioAssay AID1259409 (Chemical Carcinogenesis Research Information System (CCRIS), 2018).
# System: rodent chemically induced tumor inhibition, incidence and multiplicity
# Assay: CCRIS tumor inhibitor studies
compound,measurement,setting,value
O=c1c(O)c(-c2ccc(O)c(O)c2)oc2cc(O)cc(O)c12,"tumour outcome (control, treated, inhibition, significance)","Carcinogen: 4-NITROQUINOLINE-1-OXIDE, 56-57-5, Dose [Inhibitor]: 0, 500 PPM IN DIET FOR 10 WK BEGINNING 1 WK PRIOR TO CARCINOGEN DOSE (STUDY DURATION: 32 WK), Route [Inhibitor]: ORAL, Species: RAT, Strain/Sex: F344/MALE, Target Tissue: Type of Lesion: TONGUE: CARCINOMA, Dose [Carcinogen]: 20 PPM IN DRINKING WATER FOR 8 WK, Promoter: NONE USED","9/15 (60%), 2/16 (13%), 78%, p<0.05"
same,"tumour outcome (control, treated, inhibition, significance)","Carcinogen: 4-NITROQUINOLINE-1-OXIDE, 56-57-5, Dose [Inhibitor]: 0, 500 PPM IN DIET FOR 10 WK BEGINNING 1 WK PRIOR TO CARCINOGEN DOSE (STUDY DURATION: 32 WK), Route [Inhibitor]: ORAL, Species: RAT, Strain/Sex: F344/MALE, Target Tissue: Type of Lesion: TONGUE: PAPILLOMA, Dose [Carcinogen]: 20 PPM IN DRINKING WATER FOR 8 WK, Promoter: NONE USED","4/15 (27%), 1/16 (6%), 78%, not significant"
same,"tumour outcome (control, treated, inhibition, significance)","Carcinogen: 4-NITROQUINOLINE-1-OXIDE, 56-57-5, Dose [Inhibitor]: 0, 500 PPM IN DIET FOR 22 WK BEGINNING 1 WK POST CARCINOGEN TREATMENT (STUDY DURATION: 32 WK), Route [Inhibitor]: ORAL, Species: RAT, Strain/Sex: F344/MALE, Target Tissue: Type of Lesion: TONGUE: CARCINOMA, Dose [Carcinogen]: 20 PPM IN DRINKING WATER FOR 8 WK, Promoter: NONE USED","9/15 (60%), 1/15 (7%), 88%, p<0.05"
same,"tumour outcome (control, treated, inhibition, significance)","Carcinogen: 4-NITROQUINOLINE-1-OXIDE, 56-57-5, Dose [Inhibitor]: 0, 500 PPM IN DIET FOR 22 WK BEGINNING 1 WK POST CARCINOGEN TREATMENT (STUDY DURATION: 32 WK), Route [Inhibitor]: ORAL, Species: RAT, Strain/Sex: F344/MALE, Target Tissue: Type of Lesion: TONGUE: PAPILLOMA, Dose [Carcinogen]: 20 PPM IN DRINKING WATER FOR 8 WK, Promoter: NONE USED","4/15 (27%), 1/15 (7%), 74%, not significant"
same,"tumour outcome (control, treated, inhibition, significance)","Carcinogen: 7,12-DIMETHYLBENZ[A]ANTHRACENE, 57-97-6, Dose [Inhibitor]: 0, 0.2 ML OF A 1% SOLUTION 1/D FOR 2 WK APPLIED 5 MIN POST EACH CARCINOGEN DOSE THEN 1/D FOR 4 WK DURING PROMOTION STAGE, Route [Inhibitor]: DERMAL, Species: MOUSE, Strain/Sex: SWISS/MALE, Target Tissue: Type of Lesion: SKIN: PAPILLOMA, Dose [Carcinogen]: 0.2 ML OF A 0.24% SOLUTION IN DMSO 1/D FOR 2 WK, Promoter: CROTON OIL, 8001-28-3","23/23 (100%), 8/24 (33%), 67%, not calculated"
same,"tumour outcome (control, treated, inhibition, significance)","Carcinogen: 7,12-DIMETHYLBENZ[A]ANTHRACENE, 57-97-6, Dose [Inhibitor]: 0, 0.2 ML OF A 1% SOLUTION 1/D FOR 2 WK APPLIED 5 MIN PRIOR TO EACH CARCINOGEN DOSE (STUDY DURATION: 20 WK), Route [Inhibitor]: DERMAL, Species: MOUSE, Strain/Sex: SWISS/MALE, Target Tissue: Type of Lesion: SKIN: PAPILLOMA, Dose [Carcinogen]: 0.2 ML OF A 0.24% SOLUTION IN DMSO 1/D FOR 2 WK, Promoter: CROTON OIL, 8001-28-3","23/23 (100%), 20/24 (83%), 17%, not calculated"
same,"tumour outcome (control, treated, inhibition, significance)","Carcinogen: 7,12-DIMETHYLBENZ[A]ANTHRACENE, 57-97-6, Dose [Inhibitor]: 0, 3% IN DIET FOR 28 WK (STUDY DURATION: 28 WK), Route [Inhibitor]: ORAL, Species: RAT, Strain/Sex: SPRAGUE-DAWLEY/FEMALE, Target Tissue: Type of Lesion: MAMMARY GLAND: CARCINOMA, Dose [Carcinogen]: 10 MG/100 G BW ONCE","16/21 (76%), 10/22 (46%), 39% p<0.05"
same,"tumour outcome (control, treated, inhibition, significance)","Carcinogen: 7,12-DIMETHYLBENZ[A]ANTHRACENE, 57-97-6, Dose [Inhibitor]: 1.0% IN POWDERED DIET BEGINNING 1 WK POST CARCINOGEN DOSE FOR 51 WK (STUDY DURATION: 52 WK), Route [Inhibitor]: ORAL, Species: RAT, Strain/Sex: SPRAGUE-DAWLEY/FEMALE, Target Tissue: Type of Lesion: EAR DUCT: BENIGN TUMOR, Dose [Carcinogen]: 2.5 MG/100 G BW IN 0.5 ML SESAME OIL ONCE, Promoter: NONE USED","7/19 (37%), 4/18 (22%), 40%, not calculated"
same,"tumour outcome (control, treated, inhibition, significance)","Carcinogen: 7,12-DIMETHYLBENZ[A]ANTHRACENE, 57-97-6, Dose [Inhibitor]: 1.0% IN POWDERED DIET BEGINNING 1 WK POST CARCINOGEN DOSE FOR 51 WK (STUDY DURATION: 52 WK), Route [Inhibitor]: ORAL, Species: RAT, Strain/Sex: SPRAGUE-DAWLEY/FEMALE, Target Tissue: Type of Lesion: MAMMARY GLAND: CARCINOMA, Dose [Carcinogen]: 2.5 MG/100 G BW IN 0.5 ML SESAME OIL ONCE, Promoter: NONE USED","6/19 (32%), 4/18 (22%), 30%, not calculated"
same,"tumour outcome (control, treated, inhibition, significance)","Carcinogen: 7,12-DIMETHYLBENZ[A]ANTHRACENE, 57-97-6, Dose [Inhibitor]: 1.0% IN POWDERED DIET BEGINNING 1 WK POST CARCINOGEN DOSE FOR 51 WK (STUDY DURATION: 52 WK), Route [Inhibitor]: ORAL, Species: RAT, Strain/Sex: SPRAGUE-DAWLEY/FEMALE, Target Tissue: Type of Lesion: MAMMARY GLAND: FIBROADENOMA, Dose [Carcinogen]: 2.5 MG/100 G BW IN 0.5 ML SESAME OIL ONCE, Promoter: NONE USED","15/19 (79%), 8/18 (44%), 44%, not calculated"
same,"tumour outcome (control, treated, inhibition, significance)","Carcinogen: 7,12-DIMETHYLBENZ[A]ANTHRACENE, 57-97-6, Dose [Inhibitor]: 30 UMOL 2 D/WK FOR 18 WK APPLIED 30-40 MIN PRIOR TO AND CONCURRENT WITH EACH PROMOTER TREATMENT BEGINNING 10 D POST CARC, Route [Inhibitor]: DERMAL, Species: MOUSE, Strain/Sex: CD-1/FEMALE, Target Tissue: Type of Lesion: SKIN: PAPILLOMA, Dose [Carcinogen]: 200 NMOL ONCE, Promoter: 12-O-TETRADECANOYLPHORBOL-13-ACETATE, 16561-29-8","95%, 62%, 35%, not calculated"
